Test results: patent publication US8361487B1, “Ant controllers and method for application thereof” (BASF Aktiengesellschaft, priority 1999, dated 2013)

System: Coptotermes formosanus Shiraki
Assay: Test Example 1: termite-killing test on treated filter paper
Type: in vivo
Settings: mortality class; 1 ml of a 500 ppm solution on filter paper, seven days after inoculation, triplicate group of 10 insects
Protocol: A filter paper was spread in a glass dish having a diameter of 9 cm, onto which was dropped 1 ml of a 500 ppm solution of the ant controller of the present invention. Then, the filter paper was inoculated with Coptotermes formosanus Shiraki. Seven days after the inoculation, percentage of dead insects was investigated, from which mortality was calculated. The test was carried out with triplicate group of 10 insects.

Q: For `CC(C(=NNC(=O)Nc1ccc(OC(F)(F)F)cc1)c1ccccc1)c1ccccc1` (stereo not drawn) [Compound 51], which Termite-killing effect is on record?
A: A (100)

Q: How did the Termite-killing effect turn out when `CC(C(=NNC(=O)Nc1ccc(OC(F)(F)F)cc1)c1ccccc1)c1ccccc1` (stereo not drawn) [Compound 52] was run?
A: A (100)

Q: For `CC(C(=NNC(=O)Nc1ccc(Cl)cc1)c1ccccc1)c1ccc(Cl)cc1` (stereo not drawn) [Compound 53], which Termite-killing effect is on record?
A: B (99-90)

Q: `CC(C(=NNC(=O)Nc1ccc(OC(F)(F)F)cc1)c1ccccc1)c1ccc(Cl)cc1` (stereo not drawn) [Compound 54] was tested. Which Termite-killing effect did it give?
A: A (100)

Q: How did the Termite-killing effect turn out when `CC(C(=NNC(=O)Nc1ccc(Cl)cc1)c1cccc(Cl)c1)c1ccc(C#N)cc1` (stereo not drawn) [Compound 55] was run?
A: A (100)

Q: For `CC(C(=NNC(=O)Nc1ccc(OC(F)(F)F)cc1)c1cccc(Cl)c1)c1ccc(C#N)cc1` (stereo not drawn) [Compound 56], which Termite-killing effect is on record?
A: A (100)

Q: `O=C(NN=C(c1ccccc1)C(O)c1ccccc1)Nc1ccc(Cl)cc1` (stereo not drawn) [Compound 57] was tested. Which Termite-killing effect did it give?
A: D (79-50)

Q: Which Termite-killing effect does the source give for `O=C(NN=C(c1ccccc1)C(O)c1ccccc1)Nc1ccc(OC(F)(F)F)cc1` (stereo not drawn) [Compound 58] here?
A: A (100)

Q: For `O=C(NN=C(c1ccccc1)C(O)c1ccc(Cl)cc1)Nc1ccc(Cl)cc1` (stereo not drawn) [Compound 59], which Termite-killing effect is on record?
A: C (89-80)

Q: `O=C(NN=C(c1ccccc1)C(O)c1ccc(Cl)cc1)Nc1ccc(OC(F)(F)F)cc1` (stereo not drawn) [Compound 60] was tested. Which Termite-killing effect did it give?
A: C (89-80)

Q: For `N#Cc1ccc(CC(=NNC(=O)Nc2ccc([S+]([O-])C(F)(F)F)cc2)c2cccc(F)c2)cc1` (stereo not drawn) [Compound 77], which Termite-killing effect is on record?
A: A (100)

Q: Which Termite-killing effect does the source give for `N#Cc1ccc(CC(=NNC(=O)Nc2ccc(S(=O)(=O)C(F)(F)F)cc2)c2ccc(F)cc2)cc1` [Compound 78] here?
A: A (100)

Q: `N#Cc1ccc(CC(=NNC(=O)Nc2ccc([S+]([O-])C(F)(F)F)cc2)c2cccc(Cl)c2)cc1` (stereo not drawn) [Compound 79] was tested. Which Termite-killing effect did it give?
A: B (99-90)

Q: For `N#Cc1ccc(CC(=NNC(=O)Nc2ccc(SC(F)(F)F)cc2)c2cccc(C(F)(F)F)c2)cc1` [Compound 80], which Termite-killing effect is on record?
A: A (100)

Q: For `N#Cc1ccc(CC(=NNC(=O)Nc2ccc([S+]([O-])C(F)(F)F)cc2)c2cccc(C(F)(F)F)c2)cc1` (stereo not drawn) [Compound 81], which Termite-killing effect is on record?
A: A (100)

Q: For `N#Cc1ccc(CC(=NNC(=O)Nc2ccc(OC(F)(F)F)cc2)c2cccc(C(F)(F)F)c2)cc1` [Compound 82], which Termite-killing effect is on record?
A: B (99-90)

Q: Which Termite-killing effect does the source give for `N#Cc1ccc(CC(=NNC(=O)Nc2ccc(Cl)cc2)c2cccc(C(F)(F)F)c2)cc1` [Compound 83] here?
A: D (79-50)

Q: For `N#Cc1ccc(CC(NNC(=O)Nc2ccc(OC(F)(F)F)cc2)c2cccc(Cl)c2)cc1` (stereo not drawn) [Compound 91], which Termite-killing effect is on record?
A: A (100)

Q: With `N#Cc1ccc(CC(NNC(=O)Nc2ccc(SC(F)(F)F)cc2)c2cccc(Cl)c2)cc1` (stereo not drawn) [Compound 92] as the molecule, how does the Termite-killing effect read?
A: A (100)

Q: For `N#Cc1ccc(CC(NNC(=O)Nc2ccc([S+]([O-])C(F)(F)F)cc2)c2cccc(Cl)c2)cc1` (stereo not drawn) [Compound 93], which Termite-killing effect is on record?
A: D (79-50)

Q: Which Termite-killing effect does the source give for `N#Cc1ccc(CC(NNC(=O)Nc2ccc(S(=O)(=O)C(F)(F)F)cc2)c2cccc(Cl)c2)cc1` (stereo not drawn) [Compound 94] here?
A: A (100)

Q: Which Termite-killing effect does the source give for `N#Cc1ccc(CC(NNC(=O)Nc2ccc(OC(F)(F)F)cc2)c2cccc(Br)c2)cc1` (stereo not drawn) [Compound 95] here?
A: A (100)

Q: `N#Cc1ccc(CC(NNC(=O)Nc2ccc(SC(F)(F)F)cc2)c2cccc(C(F)(F)F)c2)cc1` (stereo not drawn) [Compound 97] was tested. Which Termite-killing effect did it give?
A: A (100)

Q: Which Termite-killing effect does the source give for `FC(F)(F)Oc1ccc(NC(=S)NNC(Cc2ccc(Cl)cc2)c2ccccc2)cc1` (stereo not drawn) [Compound 98] here?
A: A (100)

Q: `N#Cc1ccc(CC(NNC(=S)Nc2ccc(OC(F)(F)F)cc2)c2cccc(Cl)c2)cc1` (stereo not drawn) [Compound 99] was tested. Which Termite-killing effect did it give?
A: A (100)

Q: How did the Termite-killing effect turn out when `N#Cc1ccc(CC(NNC(=S)Nc2ccc(OC(F)(F)F)cc2)c2cccc(C(F)(F)F)c2)cc1` (stereo not drawn) [Compound 100] was run?
A: A (100)

Q: `CC(=O)N(NC(=O)Nc1ccc(OC(F)(F)F)cc1)C(Cc1ccc(C#N)cc1)c1cccc(Cl)c1` (stereo not drawn) [Compound 101] was tested. Which Termite-killing effect did it give?
A: A (100)

Q: `N#Cc1ccc(CC(c2cccc(Cl)c2)N(NC(=O)Nc2ccc(OC(F)(F)F)cc2)C(=O)c2ccccc2)cc1` (stereo not drawn) [Compound 102] was tested. Which Termite-killing effect did it give?
A: A (100)

Q: `CCNC(=O)N(NC(=O)Nc1ccc(OC(F)(F)F)cc1)C(Cc1ccc(C#N)cc1)c1cccc(Cl)c1` (stereo not drawn) [Compound 103] was tested. Which Termite-killing effect did it give?
A: A (100)

Q: How did the Termite-killing effect turn out when `O=C(NNC(Cc1ccc(F)cc1)c1ccccc1)Nc1ccc(OC(F)(F)F)cc1` (stereo not drawn) [Compound 109] was run?
A: C (89-80)

Q: How did the Termite-killing effect turn out when `O=C(NNC(Cc1ccc(Br)cc1)c1ccccc1)Nc1ccc(Cl)cc1` (stereo not drawn) [Compound 110] was run?
A: B (99-90)

Q: How did the Termite-killing effect turn out when `O=C(NNC(Cc1ccc(Br)cc1)c1ccccc1)Nc1ccc(OC(F)(F)F)cc1` (stereo not drawn) [Compound 111] was run?
A: D (79-50)

Q: How did the Termite-killing effect turn out when `N#Cc1cccc(CC(NNC(=O)Nc2ccc(OC(F)(F)F)cc2)c2ccccc2)c1` (stereo not drawn) [Compound 112] was run?
A: A (100)

Q: With `O=C(NNC(Cc1ccccc1[N+](=O)[O-])c1ccccc1)Nc1ccc(OC(F)(F)F)cc1` (stereo not drawn) [Compound 113] as the molecule, how does the Termite-killing effect read?
A: A (100)

Q: Which Termite-killing effect does the source give for `N#Cc1ccc(CC(NNC(=O)Nc2ccc(OC(F)(F)F)cc2)c2cccc(F)c2)cc1` (stereo not drawn) [Compound 114] here?
A: B (99-90)

Q: For `N#Cc1ccc(CC(NNC(=O)Nc2ccc(SC(F)(F)F)cc2)c2cccc(F)c2)cc1` (stereo not drawn) [Compound 115], which Termite-killing effect is on record?
A: A (100)

Q: `N#Cc1ccc(CC(NNC(=O)Nc2ccc([S+]([O-])C(F)(F)F)cc2)c2cccc(F)c2)cc1` (stereo not drawn) [Compound 116] was tested. Which Termite-killing effect did it give?
A: B (99-90)

Q: How did the Termite-killing effect turn out when `N#Cc1ccc(CC(NNC(=O)Nc2ccc([S+]([O-])C(F)(F)F)cc2)c2cccc(C(F)(F)F)c2)cc1` (stereo not drawn) [Compound 119] was run?
A: A (100)

Q: For `N#Cc1ccc(CC(NNC(=O)Nc2ccc(S(=O)(=O)C(F)(F)F)cc2)c2cccc(C(F)(F)F)c2)cc1` (stereo not drawn) [Compound 120], which Termite-killing effect is on record?
A: A (100)

Q: For `N#Cc1cccc(CC(NNC(=O)Nc2ccc(OC(F)(F)F)cc2)c2ccccc2)c1` (stereo not drawn) [Compound 121], which Termite-killing effect is on record?
A: C (89-80)

Q: How did the Termite-killing effect turn out when `O=C(C=NN(Cc1ccccc1)c1ccccc1)Nc1ccc(OC(F)(F)F)cc1` [Compound 122] was run?
A: D (79-50)

Q: For `O=C(C=NN(Cc1ccc(Cl)cc1)c1ccccc1)Nc1ccc(OC(F)(F)F)cc1` [Compound 123], which Termite-killing effect is on record?
A: A (100)

Q: With `N#Cc1ccc(CN(N=CC(=O)Nc2ccc(Cl)cc2)c2ccccc2)cc1` [Compound 124] as the molecule, how does the Termite-killing effect read?
A: D (79-50)

Q: Which Termite-killing effect does the source give for `N#Cc1ccc(CN(N=CC(=O)Nc2ccc(OC(F)(F)F)cc2)c2ccccc2)cc1` [Compound 125] here?
A: A (100)

Q: `O=C(C=NN(Cc1ccc(Cl)cc1)c1cccc(Cl)c1)Nc1ccc(Cl)cc1` [Compound 126] was tested. Which Termite-killing effect did it give?
A: A (100)

Q: Which Termite-killing effect does the source give for `O=C(C=NN(Cc1ccc(Cl)cc1)c1cccc(Cl)c1)Nc1ccc(OC(F)(F)F)cc1` [Compound 127] here?
A: A (100)

Q: Which Termite-killing effect does the source give for `O=C(C=NN(Cc1ccc([N+](=O)[O-])cc1)c1cccc(Cl)c1)Nc1ccc(Cl)cc1` [Compound 128] here?
A: A (100)

Q: `O=C(C=NN(Cc1ccc([N+](=O)[O-])cc1)c1cccc(Cl)c1)Nc1ccc(OC(F)(F)F)cc1` [Compound 129] was tested. Which Termite-killing effect did it give?
A: A (100)

Q: How did the Termite-killing effect turn out when `N#Cc1ccc(CN(N=CC(=O)Nc2ccc(Cl)cc2)c2cccc(Cl)c2)cc1` [Compound 130] was run?
A: C (89-80)

Q: Which Termite-killing effect does the source give for `N#Cc1ccc(CN(N=CC(=O)Nc2ccc(OC(F)(F)F)cc2)c2cccc(Cl)c2)cc1` [Compound 131] here?
A: C (89-80)

Q: How did the Termite-killing effect turn out when `N#Cc1ccc(CN(N=CC(=O)Nc2ccc(SC(F)(F)F)cc2)c2cccc(Cl)c2)cc1` [Compound 132] was run?
A: A (100)

Q: How did the Termite-killing effect turn out when `N#Cc1ccc(CN(N=CC(=O)Nc2ccc([S+]([O-])C(F)(F)F)cc2)c2cccc(Cl)c2)cc1` (stereo not drawn) [Compound 133] was run?
A: A (100)

Q: How did the Termite-killing effect turn out when `N#Cc1ccc(CN(N=CC(=O)Nc2ccc(Cl)cc2)c2cccc(F)c2)cc1` [Compound 134] was run?
A: A (100)

Q: For `N#Cc1ccc(CN(N=CC(=O)Nc2ccc(OC(F)(F)F)cc2)c2cccc(F)c2)cc1` [Compound 135], which Termite-killing effect is on record?
A: B (99-90)

Q: `Cc1cccc(N(Cc2ccc(C#N)cc2)N=CC(=O)Nc2ccc(Cl)cc2)c1` [Compound 136] was tested. Which Termite-killing effect did it give?
A: A (100)

Q: Which Termite-killing effect does the source give for `Cc1cccc(N(Cc2ccc(C#N)cc2)N=CC(=O)Nc2ccc(OC(F)(F)F)cc2)c1` [Compound 137] here?
A: A (100)

Q: How did the Termite-killing effect turn out when `N#Cc1ccc(CN(N=CC(=O)Nc2ccc(Cl)cc2)c2cccc(C(F)(F)F)c2)cc1` [Compound 138] was run?
A: A (100)

Q: How did the Termite-killing effect turn out when `N#Cc1ccc(CN(N=CC(=O)Nc2ccc(OC(F)(F)F)cc2)c2cccc(C(F)(F)F)c2)cc1` [Compound 139] was run?
A: A (100)

Q: With `CC(=NN(Cc1ccc(C#N)cc1)c1cccc(Cl)c1)C(=O)Nc1ccc(OC(F)(F)F)cc1` [Compound 140] as the molecule, how does the Termite-killing effect read?
A: A (100)

Q: How did the Termite-killing effect turn out when `CN(C(=O)C=NN(Cc1ccc(C#N)cc1)c1cccc(C(F)(F)F)c1)c1ccc(Cl)cc1` [Compound 141] was run?
A: D (79-50)

Q: Which Termite-killing effect does the source give for `N#Cc1ccccc1CN(N=CC(=O)Nc1ccc(OC(F)(F)F)cc1)c1cccc(Cl)c1` [Compound 142] here?
A: C (89-80)

Q: How did the Termite-killing effect turn out when `O=C(CNN(Cc1ccccc1)c1ccccc1)Nc1ccc(OC(F)(F)F)cc1` [Compound 143] was run?
A: C (89-80)

Q: How did the Termite-killing effect turn out when `O=C(CNN(Cc1ccc(Cl)cc1)c1ccccc1)Nc1ccc(OC(F)(F)F)cc1` [Compound 144] was run?
A: B (99-90)

Q: `N#Cc1ccc(CN(NCC(=O)Nc2ccc(Cl)cc2)c2ccccc2)cc1` [Compound 145] was tested. Which Termite-killing effect did it give?
A: A (100)

Q: For `N#Cc1ccc(CN(NCC(=O)Nc2ccc(OC(F)(F)F)cc2)c2ccccc2)cc1` [Compound 146], which Termite-killing effect is on record?
A: D (79-50)

Q: Which Termite-killing effect does the source give for `O=C(CNN(Cc1ccc(Cl)cc1)c1cccc(Cl)c1)Nc1ccc(Cl)cc1` [Compound 147] here?
A: A (100)

Q: `O=C(CNN(Cc1ccc(Cl)cc1)c1cccc(Cl)c1)Nc1ccc(OC(F)(F)F)cc1` [Compound 148] was tested. Which Termite-killing effect did it give?
A: A (100)

Q: How did the Termite-killing effect turn out when `O=C(CNN(Cc1ccc([N+](=O)[O-])cc1)c1cccc(Cl)c1)Nc1ccc(Cl)cc1` [Compound 149] was run?
A: A (100)

Q: For `O=C(CNN(Cc1ccc([N+](=O)[O-])cc1)c1cccc(Cl)c1)Nc1ccc(OC(F)(F)F)cc1` [Compound 150], which Termite-killing effect is on record?
A: C (89-80)
